In brackets after ≈: the same amount, converted by molar mass.
Legend:
[1] = tested on: Haemophilus influenzae 76; experiment: MIC, standard agar-dilution assay; assay type: cell-based
Experimental: (§1) The formula I compounds have in vitro and in vivo activity against Gram-positive pathogenic bacteria. The MIC's were determined using a standard agar-dilution assays.

[2] = tested on: Haemophilus influenzae C.L.; experiment: MIC, standard agar-dilution assay; assay type: cell-based
Experimental: as §1

[3] = tested on: Streptococcus pyogenes C203; experiment: MIC, standard agar-dilution assay; assay type: cell-based
Experimental: as §1

[4] = tested on: Staphylococcus epidermidis EPI270; experiment: MIC, standard agar-dilution assay; assay type: cell-based
Experimental: as §1

[5] = tested on: Staphylococcus aureus NRRL X1.1; experiment: MIC, standard agar-dilution assay; assay type: cell-based
Experimental: as §1

[6] = tested on: Staphylococcus aureus V41; experiment: MIC, standard agar-dilution assay; assay type: cell-based
Experimental: as §1

[7] = tested on: Klebsiella pneumoniae X26; experiment: MIC, standard agar-dilution assay; assay type: cell-based
Experimental: as §1

Escherichia coli EC14 = experiment: MIC, standard agar-dilution assay; assay type: cell-based
Experimental: as §1

[8] = tested on: Staphylococcus aureus X400; experiment: MIC, standard agar-dilution assay; assay type: cell-based
Experimental: as §1

[9] = tested on: Klebsiella pneumoniae X68; experiment: MIC, standard agar-dilution assay; assay type: cell-based
Experimental: as §1

[10] = tested on: Staphylococcus epidermidis 222; experiment: MIC, standard agar-dilution assay; assay type: cell-based
Experimental: as §1

Escherichia coli N10 = experiment: MIC, standard agar-dilution assay; assay type: cell-based
Experimental: as §1

[11] = tested on: Klebsiella pneumoniae KAE; experiment: MIC, standard agar-dilution assay; assay type: cell-based
Experimental: as §1

Escherichia coli TEM = experiment: MIC, standard agar-dilution assay; assay type: cell-based
Experimental: as §1

Streptococcus pyogenes = experiment: In vivo activity, experimentally infected mice (ED50); details: Streptococcus pyogenes infection; doses administered subcutaneously to mice 1 and 4 hours postinfection
[12] = tested on: Enterococcus faecalis 2041; experiment: MIC, standard agar-dilution assay; assay type: cell-based
Experimental: as §1
^c Formerly Streptococcus faecalis 2041

Streptococcus pneumoniae = experiment: In vivo activity, experimentally infected mice (ED50); details: Streptococcus pneumoniae infection; doses administered subcutaneously to mice 1 and 4 hours postinfection
Enterococcus faecium X66 = experiment: MIC, standard agar-dilution assay; assay type: cell-based
Experimental: as §1
^b Formerly Streptococcus faecium X66

[13] = tested on: Staphylococcus aureus S13E; assay type: cell-based
Experimental: as §1

[14] = tested on: Streptococcus pneumoniae Park 1; assay type: cell-based
Experimental: as §1

Staphylococcus aureus = experiment: In vivo activity, experimentally infected mice (ED50); details: Staphylococcus aureus infection; doses administered subcutaneously to mice 1 and 4 hours postinfection

| SMILES | MIC [1] [µg/mL] | MIC [2] [µg/mL] | MIC [3] | MIC [4] | MIC [5] | MIC [6] | MIC [7] [µg/mL] | MIC (Escherichia coli EC14) [µg/mL] | MIC [8] | MIC [9] [µg/mL] | MIC [10] | MIC (Escherichia coli N10) [µg/mL] | MIC [11] [µg/mL] | MIC (Escherichia coli TEM) [µg/mL] | ED50 (Streptococcus pyogenes) [mg/kg/2] | MIC [12] | ED50 (Streptococcus pneumoniae) [mg/kg/2] | MIC (Enterococcus faecium X66) | MIC [13] | MIC [14] | other results |
| --- | --- | --- | --- | --- | --- | --- | --- | --- | --- | --- | --- | --- | --- | --- | --- | --- | --- | --- | --- | --- | --- |
| CCCCCCC(=O)N[C@@]1(C)C[C@H](O[C@H]2[C@H](Oc3c4cc5cc3Oc3ccc(cc3Cl)[C@@H](O)[C@@H](NC(=O)[C@@H](CC(C)C)NC)C(=O)N[C@@H](CC(N)=O)C(=O)N[C@H]5C(=O)N[C@H]3C(=O)N[C@H](C(=O)N[C@H](C(=O)O)c5cc(O)cc(O)c5-c5cc3ccc5O)[C@H](O[C@H]3C[C@](C)(N)[C@@H](O)[C@H](C)O3)c3ccc(cc3)O4)O[C@H](CO)[C@@H](O)[C@@H]2O)O[C@@H](C)[C@@H]1O [Compound 27] | > 128 | > 128 | .5 µg/mL (≈ 0.299 µM) | 2 µg/mL (≈ 1.2 µM) | 1 µg/mL (≈ 0.599 µM) | 1 µg/mL (≈ 0.599 µM) | > 128 | > 128 | 1 µg/mL (≈ 0.599 µM) | > 128 | 2 µg/mL (≈ 1.2 µM) | > 128 | > 128 | > 128 | 0.5 | 2 µg/mL (≈ 1.2 µM) | 0.71 | 2 µg/mL (≈ 1.2 µM) | 2 µg/mL (≈ 1.2 µM) | .25 µg/mL (≈ 0.15 µM) | ED50 (Staphylococcus aureus): > 1.0 mg/kg/2 |
| CN[C@H](CC(C)C)C(=O)N[C@H]1C(=O)N[C@@H](CC(N)=O)C(=O)N[C@H]2C(=O)N[C@H]3C(=O)N[C@H](C(=O)N[C@H](C(=O)O)c4cc(O)cc(O)c4-c4cc3ccc4O)[C@H](O[C@H]3C[C@](C)(NCc4ccc(Cl)cc4)[C@@H](O)[C@H](C)O3)c3ccc(cc3)Oc3cc2cc(c3O[C@@H]2O[C@H](CO)[C@@H](O)[C@H](O)[C@H]2O[C@H]2C[C@](C)(NCc3ccc(Cl)cc3)[C@@H](O)[C@H](C)O2)Oc2ccc(cc2Cl)[C@H]1O [Compound 23] | > 128 | > 128 | 2 µg/mL (≈ 1.11 µM) | 2 µg/mL (≈ 1.11 µM) | 2 µg/mL (≈ 1.11 µM) | 2 µg/mL (≈ 1.11 µM) | > 128 | > 128 | 2 µg/mL (≈ 1.11 µM) | > 128 | 1 µg/mL (≈ 0.553 µM) | > 128 | > 128 | > 128 | 0.8 | 4 µg/mL (≈ 2.21 µM) | 1.02 | 4 µg/mL (≈ 2.21 µM) | 2 µg/mL (≈ 1.11 µM) | 1 µg/mL (≈ 0.553 µM) |  |
| CN[C@H](CC(C)C)C(=O)N[C@H]1C(=O)N[C@@H](CC(N)=O)C(=O)N[C@H]2C(=O)N[C@H]3C(=O)N[C@H](C(=O)N[C@H](C(=O)O)c4cc(O)cc(O)c4-c4cc3ccc4O)[C@H](O[C@H]3C[C@](C)(NCc4ccc(Cl)cc4)[C@@H](O)[C@H](C)O3)c3ccc(cc3)Oc3cc2cc(c3O[C@@H]2O[C@H](CO)[C@@H](O)[C@H](O)[C@H]2O[C@H]2C[C@](C)(N)[C@@H](O)[C@H](C)O2)Oc2ccc(cc2Cl)[C@H]1O [Compound 21] | > 128 | > 128 | .5 µg/mL (≈ 0.297 µM) | .5 µg/mL (≈ 0.297 µM) | .5 µg/mL (≈ 0.297 µM) | .5 µg/mL (≈ 0.297 µM) | > 128 | > 128 | .5 µg/mL (≈ 0.297 µM) | > 128 | .25 µg/mL (≈ 0.149 µM) | > 128 | > 128 | > 128 | 0.29 | .5 µg/mL (≈ 0.297 µM) | 0.47 | .5 µg/mL (≈ 0.297 µM) | .25 µg/mL (≈ 0.149 µM) | .5 µg/mL (≈ 0.297 µM) |  |
| CCCCCCC(=O)NC1(C)CC(OC2c3ccc(c(Cl)c3)Oc3cc4cc(c3OC3OC(CO)C(O)C(O)C3OC3CC(C)(N)C(O)C(C)O3)Oc3ccc(cc3Cl)C(O)C(NC(=O)C(CC(C)C)NC)C(=O)NC(CC(N)=O)C(=O)NC4C(=O)NC3C(=O)NC2C(=O)NC(C(=O)O)c2cc(O)cc(O)c2-c2cc3ccc2O)OC(C)C1O (centres unmarked) [Compound 69] | > 128 | > 128 | 1 µg/mL (≈ 0.587 µM) | 8 µg/mL (≈ 4.69 µM) | 1 µg/mL (≈ 0.587 µM) | 2 µg/mL (≈ 1.17 µM) | > 128 | > 128 | 4 µg/mL (≈ 2.35 µM) | > 128 | 2 µg/mL (≈ 1.17 µM) | > 128 | > 128 | > 128 | < 0.62 | 1 µg/mL (≈ 0.587 µM) |  | 2 µg/mL (≈ 1.17 µM) | 2 µg/mL (≈ 1.17 µM) | .5 µg/mL (≈ 0.293 µM) |  |
